Data from article PMC10769034, “Aromatic oil from lavender as an atopic dermatitis suppressant” (PLOS ONE, 2024).
Where “and” joins values, the source holds several entries; their conditions need not be identical. Equal values may be shown once. Read-outs that look alike come from different tables or passages of the source. Values belong to the molecule of their own block, whether it stands above or below them.

Experiments:
ARE-NLuc::HaCaT [1] = assay: Keratinocyte activation assay (ARE reporter assay, OECD TG442D); settings: 48 h; positive criteria of TG442D
[2] = cited from earlier work
AhR [3] = assay: XRE reporter assay for AD evaluation (AD cell model); settings: for IC50: Homo sapiens, read-out: IC50 of inhibition of AD (XRE reporter expression); for IC50 / inhibitory effect in the AD cell model, compared in words: 24 h; for inhibitory effect in the AD cell model, compared in words: 0.5 μM FICZ, XRE-NLuc::HaCaT, not as strong as linalyl acetate
Artemin = assay: FICZ-induced Artemin mRNA expression by qPCR in HaCaT cells; type: cell-based; settings: Homo sapiens, 24 h, read-out: IC50 of decrease of FICZ-induced Artemin expression
CD86 on U937 cells [4] = test system: CD86 on U937 cells; design: method as in PMID 23576290; settings: cited from earlier work
ARE-NLuc::HaCaT [5] = assay: Cell viability (WST-1) in the keratinocyte activation assay; settings: 48 h, mean ± SD of three experiments
AhR [6] = assay: AhR mRNA level by qPCR in HaCaT cells; type: cell-based, human; settings: FICZ with or without linalyl acetate or linalool, 24 h
ARNT [7] = assay: ARNT protein level by western blotting in HaCaT cells; type: cell-based, human; settings: FICZ alone, 24 h
ARNT [8] = assay: ARNT mRNA level by qPCR in HaCaT cells; type: cell-based, human; settings: FICZ with or without linalyl acetate or linalool, 24 h
CD86 on U937 cells [9] = settings: for CD86+ FL1 positivity (%): 200 µg/mL, control printed for each of three test series
U937 cells [10] = assay: Cell viability (PI staining) in the dendritic cell activation assay; settings: 200 µg/mL, control printed for each of three test series
[11] = as above; settings: human, U937 cells, %Viability, control printed for each of three test series
ARE-NLuc::HaCaT [12] = test system: ARE-NLuc::HaCaT
ARE-NLuc::HaCaT [13] = test system: ARE-NLuc::HaCaT; remark: listed apart in the source
AhR [14] = assay: AhR protein level by western blotting in HaCaT cells; type: cell-based, human; settings: FICZ and linalyl acetate, 24 h
Protocol: Sodium dodecyl sulfate–polyacrylamide gel electrophoresis (SDS–PAGE) and western blotting were performed as described previously. Cell lysates were prepared in lysis buffer [10 mM HEPES-KOH, pH 7.4, 100 mM KCl, 1 mM MgCl2, 1% Triton X-100, and protease inhibitor cocktails (Nacalai)]. After incubation for 10 min on ice, the lysate was clarified by centrifugation at 14,000 × g for 10 min. The supernatants were then subjected to SDS–PAGE on a 7.5% gel (Bio-Rad). The gel was electrotransferred to polyvinylidene fluoride or polyvinylidene difluoride membranes (pore size: 0.45 μm, Merck Group Japan, Tokyo, Japan). The proteins on the membrane were detected by incubation with diluted anti-AhR, anti-ARNT (Santa Cruz Biotechnology, Cosmo Bio Co., LTD, Tokyo, Japan), and anti-γ-tubulin (Sigma, Sigma-Aldrich Japan, Tokyo, Japan) followed by HRP-conjugated anti-mouse immunoglobulin G (Cell Signaling, CST Japan, Tokyo, Japan) using a charge-coupled device camera.
Next, we measured the mRNA and protein expression of AhR and ARNT by qPCR and western blotting, respectively.
Total RNA was then extracted and reverse transcribed to cDNA that was subjected to qPCR using the primer set listed in S2 Table in S1 File. […] Fold induction was calculated as the vehicle set at 1. […] The right-side numbers are experimental numbers. d) Band intensity of each lane was quantified by ImageJ and normalized to […]. […]

U937 cells [15] = settings: human
HaCaT cells = assay: RNAseq on treated HaCaT cells analysed by DisGeNET-Metascape; type: cell-based, human; settings: authors' reply to reviewer, data not shown
Text: Thank you for your comment. […] To clarify that our conclusion is limited, we have added some words in the revised Discussion section.

[16] = cited from earlier work; remark: listed apart in the source

- outcome of the keratinocyte activation assay (ARE-NLuc::HaCaT [1]): negative
- IC50 (AhR [3]): > 1000 µM
SMILES: C=CC(C)(O)CCC=C(C)C (centres unmarked) [Linalool]
- Patch test (human) [2]: 0.2% positive ^##, ^###
- IC50 (Artemin; 5 μM FICZ, qPCR normalized to GAPDH): 194 µM
- outcome of the dendritic cell activation assay (CD86 on U937 cells [4]): positive
- CV70 (ARE-NLuc::HaCaT [5]): >2000 µM
- AhR mRNA level (AhR [6]): did not change

SMILES: O=Cc1c2[nH]c3ccccc3c2cc2[nH]c3ccccc3c12 [FICZ, 6-formylindolo[3,2-b]carbazole]
- AhR mRNA level (AhR [6]): did not change
- ARNT protein level (ARNT [7]): increased
- ARNT mRNA level (ARNT [8]): did not change

SMILES: CC(O)C(=O)O (centres unmarked) [lactic acid]
- CD86+ FL1 positivity (%) (CD86 on U937 cells [9]; Experiment 1, 48 h): 11.5% and 10.1%
- CD86+ FL1 positivity (%) (CD86 on U937 cells [9]; Experiment 2, 48 h): 8.4% and 12.6% and 11.7%
- %Viability (U937 cells [10]; Experiment 1, 48 h): 96.2%
- %Viability (U937 cells [10]; Experiment 2, 48 h): 95.4% and 94.4%
- viability at 48 h, 200 µg/mL ([11]; Experiment 1, 48 h): 97.4%
- viability at 48 h, 200 µg/mL ([11]; Experiment 2, 48 h): 96.4%

- outcome of the keratinocyte activation assay (ARE-NLuc::HaCaT [12]): weakly positive
- CV70 (ARE-NLuc::HaCaT [13]): 1319 ± 52.3 µM
SMILES: C=CC(C)(O)CCCC(C)C (centres unmarked) [DHL, 6,7-Dihydrolinalool]
- inhibitory effect in the AD cell model, compared in words (AhR [3]): stronger inhibitory effects than linalool

SMILES: C=C(C)C(=O)OCCOC(=O)C(=C)C [Ethylene glycol dimethacrylate, ethylene glycol dimethacrylate, reference compound]
- outcome of the keratinocyte activation assay (ARE-NLuc::HaCaT [1]): positive
- CV70 (ARE-NLuc::HaCaT [5]): 523 ± 59.0 µM
- CV70 (ARE-NLuc::HaCaT [5]; listed as EGDMA): 523 ± 59.0 µM

- outcome of the keratinocyte activation assay (ARE-NLuc::HaCaT [12]): weakly positive
- CV70 (ARE-NLuc::HaCaT [13]): 1416 ± 90.6 µM
SMILES: CCC(C)(O)CCCC(C)C (centres unmarked) [THL, tetrahydrolinalool]
- inhibitory effect in the AD cell model, compared in words (AhR [3]): stronger inhibitory effects than linalool

SMILES: C=CC(C)(CCC=C(C)C)OC(C)=O (centres unmarked) [Linalyl acetate]
- S.I. value of CD86 (CD86 on U937 cells [9]): less than 150
- outcome of the dendritic cell activation assay (CD86 on U937 cells [9]): negative
- reduction of AhR protein level compared with FICZ alone (AhR [14]): approximately 30%
- outcome of the keratinocyte activation assay (ARE-NLuc::HaCaT [1]): weakly positive
- CV70 (U937 cells [15]): 16 ± 3.8 µg/mL
- evidence of contact allergy in RNAseq (HaCaT cells): no evidence of contact allergy
- patch test [2]: negativity
- IC50 (AhR [3]): 519 µM
- XRE reporter expression (AhR [3]; without activation of AhR by FICZ): decreased XRE reporter expression
- IC50 (Artemin): 3.6 µM
- CV70 (ARE-NLuc::HaCaT [5]): 1466 ± 45.4 µM
- Key event 4, Local lymph node assay [16]: weak positivity
- AhR mRNA level (AhR [6]): did not change
